From the supplement of paper PMC6045584
± gives the standard deviation of the averaged measurements.

Tests used:
MK2206 = compound: NC1(c2ccc(-c3nc4ccn5c(=O)[nH]nc5c4cc3-c3ccccc3)cc2)CCC1 [MK2206]; experiment: surviving fraction relative to DMSO-only wells; higher = less growth inhibition; conditions: exposure time: 5 days
Method in brief: (§1)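 Continuous five-day exposure to inhibitors at 0.5, 1, 5, 10, 50, 100, 500 and 1000 nM started 24 hours after log-phase tumour cell lines were seeded at 250–500 cells per well in 384-well plates. Luminescence was read after 10 minutes at room temperature. Viability is given as surviving fraction, meaning CellTiter-Glo luminescence normalised to the median of DMSO-only wells.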

EVEROLIMUS = compound: CO[C@H]1C[C@@H]2CC[C@@H](C)[C@@](O)(O2)C(=O)C(=O)N2CCCC[C@H]2C(=O)O[C@H]([C@H](C)C[C@@H]2CC[C@@H](OCCO)[C@H](OC)C2)CC(=O)[C@H](C)/C=C(\C)[C@@H](O)[C@@H](OC)C(=O)[C@H](C)C[C@H](C)/C=C/C=C/C=C/1C [EVEROLIMUS]; experiment: as above; conditions: exposure time: 5 days
Method in brief: as §1

Row | Test System | surviving fraction (MK2206; 0.5 nM) | surviving fraction (MK2206; 1 nM) | surviving fraction (MK2206; 5 nM) | surviving fraction (MK2206; 10 nM) | surviving fraction (MK2206; 50 nM) | surviving fraction (MK2206; 100 nM) | surviving fraction (MK2206; 500 nM) | surviving fraction (MK2206; 1000 nM) | surviving fraction (EVEROLIMUS; 0.5 nM) | surviving fraction (EVEROLIMUS; 1 nM) | surviving fraction (EVEROLIMUS; 5 nM) | surviving fraction (EVEROLIMUS; 10 nM) | surviving fraction (EVEROLIMUS; 50 nM) | surviving fraction (EVEROLIMUS; 100 nM) | surviving fraction (EVEROLIMUS; 500 nM) | surviving fraction (EVEROLIMUS; 1000 nM)
1 | VCAP PROSTATE | 0.898 ± 0.12 | 0.848 ± 0.073 | 0.928 ± 0.069 | 0.936 ± 0.054 | 0.834 ± 0.13 | 0.754 ± 0.093 | 0.507 ± 0.066 | 0.362 ± 0.017 | 1.04 ± 0.079 | 1.04 ± 0.052 | 0.941 ± 0.1 | 0.984 ± 0.032 | 0.891 ± 0.15 | 0.898 ± 0.027 | 0.758 ± 0.078 | 0.766 ± 0.056
2 | MDAMB453 BREAST | 1.1 ± 0.093 | 1.08 ± 0.039 | 1.11 ± 0.041 | 1.15 ± 0.035 | 1.12 ± 0.072 | 0.846 ± 0.013 | 0.327 ± 0.054 | 0.266 ± 0.019 | 0.941 ± 0.11 | 0.75 ± 0.07 | 0.461 ± 0.0079 | 0.369 ± 0.037 | 0.339 ± 0.035 | 0.305 ± 0.018 | 0.301 ± 0.024 | 0.284 ± 0.011
3 | MDAMB157 BREAST | 0.952 ± 0.052 | 0.999 ± 0.02 | 1.06 ± 0.026 | 0.963 ± 0.081 | 0.96 ± 0.053 | 0.949 ± 0.019 | 0.947 ± 0.048 | 0.904 ± 0.1 | 0.696 ± 0.11 | 0.817 ± 0.043 | 0.747 ± 0.05 | 0.692 ± 0.011 | 0.634 ± 0.05 | 0.712 ± 0.052 | 0.598 ± 0.041 | 0.572 ± 0.095
4 | HELA CERVIX | 1.03 ± 0.037 | 1.15 ± 0.043 | 1.12 ± 0.073 | 1.09 ± 0.12 | 1.02 ± 0.057 | 1.09 ± 0.035 | 1.08 ± 0.031 | 1.19 ± 0.051 | 1.04 ± 0.027 | 1.04 ± 0.014 | 1.04 ± 0.029 | 1.036 ± 0.0052 | 1.15 ± 0.023 | 1.14 ± 0.058 | 1.09 ± 0.036 | 1.16 ± 0.055
5 | LM7 BONE | 0.991 ± 0.019 | 0.998 ± 0.043 | 1.04 ± 0.046 | 1.03 ± 0.055 | 0.84 ± 0.069 | 0.818 ± 0.056 | 0.628 ± 0.041 | 0.579 ± 0.016 | 0.934 ± 0.053 | 0.87 ± 0.056 | 0.803 ± 0.1 | 0.785 ± 0.12 | 0.77 ± 0.085 | 0.752 ± 0.046 | 0.674 ± 0.087 | 0.609 ± 0.044
6 | SCC90 HEADNECK | 0.954 ± 0.027 | 1.01 ± 0.048 | 0.973 ± 0.073 | 1.12 ± 0.093 | 0.887 ± 0.011 | 0.935 ± 0.082 | 0.704 ± 0.071 | 0.586 ± 0.047 | 0.857 ± 0.032 | 0.816 ± 0.08 | 0.68 ± 0.048 | 0.643 ± 0.028 | 0.556 ± 0.019 | 0.563 ± 0.039 | 0.522 ± 0.063 | 0.5257 ± 0.0047
7 | OSHN BONE | 1.08 ± 0.018 | 1.12 ± 0.034 | 1.08 ± 0.021 | 1.12 ± 0.052 | 1.05 ± 0.046 | 1.09 ± 0.038 | 1.04 ± 0.051 | 1.09 ± 0.086 | 1.06 ± 0.014 | 1.03 ± 0.038 | 0.991 ± 0.035 | 0.983 ± 0.026 | 1.05 ± 0.054 | 1.06 ± 0.024 | 1.04 ± 0.057 | 1.06 ± 0.023
8 | HCT15 LARGE INTESTINE | 1.04 ± 0.042 | 1.07 ± 0.048 | 1.08 ± 0.052 | 1.07 ± 0.064 | 1.02 ± 0.063 | 1.07 ± 0.025 | 0.942 ± 0.073 | 0.928 ± 0.026 | 0.803 ± 0.066 | 0.702 ± 0.066 | 0.599 ± 0.07 | 0.511 ± 0.013 | 0.512 ± 0.055 | 0.511 ± 0.059 | 0.476 ± 0.046 | 0.542 ± 0.037
9 | MFM223 BREAST | 1.14 ± 0.047 | 1.12 ± 0.014 | 1.06 ± 0.038 | 1.14 ± 0.16 | 0.793 ± 0.077 | 0.661 ± 0.087 | 0.314 ± 0.053 | 0.224 ± 0.011 | 0.953 ± 0.069 | 0.912 ± 0.077 | 0.73 ± 0.049 | 0.749 ± 0.082 | 0.669 ± 0.053 | 0.638 ± 0.068 | 0.706 ± 0.076 | 0.754 ± 0.053
10 | HOS BONE | 1.02 ± 0.013 | 1.03 ± 0.026 | 1.03 ± 0.0087 | 1.05 ± 0.038 | 0.978 ± 0.021 | 0.948 ± 0.021 | 0.822 ± 0.038 | 0.79 ± 0.012 | 0.885 ± 0.015 | 0.861 ± 0.0096 | 0.804 ± 0.018 | 0.742 ± 0.021 | 0.763 ± 0.011 | 0.766 ± 0.012 | 0.711 ± 0.033 | 0.721 ± 0.0092
11 | SNU475 LIVER | 0.973 ± 0.037 | 1.04 ± 0.053 | 1.01 ± 0.027 | 0.983 ± 0.043 | 0.9 ± 0.024 | 0.891 ± 0.018 | 0.767 ± 0.03 | 0.653 ± 0.1 | 0.489 ± 0.032 | 0.447 ± 0.028 | 0.41 ± 0.042 | 0.364 ± 0.018 | 0.381 ± 0.028 | 0.35 ± 0.01 | 0.303 ± 0.0065 | 0.343 ± 0.017
12 | SG31 HEADNECK | 1.24 ± 0.29 | 0.996 ± 0.022 | 1.1 ± 0.28 | 1.19 ± 0.2 | 0.945 ± 0.16 | 0.916 ± 0.2 | 0.901 ± 0.13 | 0.88 ± 0.12 | 0.931 ± 0.077 | 0.905 ± 0.11 | 0.638 ± 0.041 | 0.62 ± 0.01 | 0.641 ± 0.035 | 0.591 ± 0.1 | 0.539 ± 0.035 | 0.574 ± 0.047
13 | HS57T BREAST | 0.979 ± 0.037 | 1 ± 0.07 | 1.02 ± 0.051 | 1.07 ± 0.056 | 0.962 ± 0.013 | 0.938 ± 0.05 | 0.747 ± 0.012 | 0.658 ± 0.092 | 0.614 ± 0.029 | 0.535 ± 0.0078 | 0.497 ± 0.031 | 0.445 ± 0.016 | 0.447 ± 0.024 | 0.44 ± 0.042 | 0.373 ± 0.024 | 0.387 ± 0.045
14 | SAOS2 BONE | 1.08 ± 0.055 | 1.13 ± 0.041 | 1.15 ± 0.021 | 1.14 ± 0.044 | 0.965 ± 0.063 | 0.925 ± 0.041 | 0.676 ± 0.019 | 0.654 ± 0.038 | 1.13 ± 0.094 | 1.12 ± 0.054 | 1.0323 ± 0.00058 | 0.943 ± 0.044 | 0.909 ± 0.048 | 0.936 ± 0.025 | 0.826 ± 0.064 | 0.71 ± 0.049
15 | SCC36 HEADNECK | 1.07 ± 0.037 | 1.11 ± 0.085 | 1.1 ± 0.084 | 1.18 ± 0.053 | 0.892 ± 0.025 | 0.936 ± 0.034 | 0.504 ± 0.044 | 0.378 ± 0.032 | 1.07 ± 0.056 | 1.09 ± 0.14 | 1.03 ± 0.018 | 0.899 ± 0.061 | 1.008 ± 0.0093 | 0.909 ± 0.097 | 0.842 ± 0.031 | 0.733 ± 0.014
16 | HCC78 LUNG | 0.785 ± 0.17 | 0.975 ± 0.05 | 1.12 ± 0.2 | 0.998 ± 0.21 | 0.848 ± 0.073 | 0.529 ± 0.13 | 0.33 ± 0.14 | 0.192 ± 0.076 | 0.516 ± 0.13 | 0.674 ± 0.26 | 0.528 ± 0.11 | 0.627 ± 0.11 | 0.621 ± 0.1 | 0.599 ± 0.18 | 0.358 ± 0.052 | 0.327 ± 0.055
17 | PCI30 HEADNECK | 0.999 ± 0.021 | 1.03 ± 0.13 | 1.01 ± 0.027 | 1.07 ± 0.035 | 0.939 ± 0.039 | 0.874 ± 0.045 | 0.592 ± 0.033 | 0.483 ± 0.017 | 0.715 ± 0.07 | 0.6 ± 0.029 | 0.52 ± 0.027 | 0.508 ± 0.02 | 0.5 ± 0.051 | 0.508 ± 0.025 | 0.463 ± 0.03 | 0.468 ± 0.013
18 | JURKAT HAEMATOPOIETIC AND LYMPHOID TISSUE | 1 ± 0.013 | 1.03 ± 0.03 | 0.92 ± 0.016 | 0.987 ± 0.022 | 0.871 ± 0.0053 | 0.787 ± 0.025 | 0.471 ± 0.01 | 0.274 ± 0.0046 | 0.988 ± 0.023 | 0.917 ± 0.041 | 0.572 ± 0.0079 | 0.557 ± 0.033 | 0.433 ± 0.029 | 0.396 ± 0.034 | 0.326 ± 0.021 | 0.275 ± 0.018
19 | SG43 HEADNECK | 1.19 ± 0.62 | 0.92 ± 0.097 | 0.894 ± 0.2 | 0.741 ± 0.14 | 0.653 ± 0.19 | 0.505 ± 0.073 | 0.465 ± 0.17 | 0.317 ± 0.089 | 1.18 ± 0.069 | 0.963 ± 0.053 | 0.943 ± 0.035 | 0.833 ± 0.13 | 0.874 ± 0.073 | 0.872 ± 0.13 | 0.908 ± 0.13 | 0.882 ± 0.071
20 | MG63 BONE | 0.987 ± 0.01 | 1.06 ± 0.049 | 1.04 ± 0.03 | 1.09 ± 0.047 | 0.95 ± 0.016 | 0.961 ± 0.03 | 0.793 ± 0.019 | 0.748 ± 0.017 | 0.954 ± 0.019 | 0.8723 ± 0.0081 | 0.747 ± 0.027 | 0.6393 ± 0.0057 | 0.594 ± 0.026 | 0.57 ± 0.02 | 0.481 ± 0.021 | 0.4813 ± 0.0035
